Laboratory results: patent publication US12516064B2, “Tetrahydropyridopyrimidines and related analogs for inhibiting YAP/TAZ-TEAD” (THE KATHOLIEKE UNIVERSITEIT LEUVEN, priority 2022, dated 2026)

System: YAP/TAZ-TEAD transcription
Assay: Reporter gene assay for measuring the inhibition of YAP/TAZ-TEAD transcription
Type: cell-based
Conditions: Homo sapiens, HEK-293T; Hek293T cells transiently transfected with TEAD-responsive element luciferase reporter; 24 hours incubation
Experimental: Hek293T cells are cultured in DMEM supplemented with 10% fetal bovine serum, Sodium pyruvate, Sodium bicarbonate, L-glutamine. The cells are harvested and transiently transfected with TEAD-responsive element luciferase reporter. Transfected cells are plated in 384-wells plate containing pre-diluted compounds. After 24 hours incubation at 37° C./5% CO2, assay plates were cooled down to RT and levelled to an equal volume per well, prior to the addition of 25 uL luciferase substrate SteadyLite (Perkin Elmer)/well. The plate was shaken for 10 min at 600 rpm, centrifuged for 1 min at 500 rpm and measured with an Envision reader (PerkinElmer). The amount of relative light units produced by the TEAD reporter is used to calculated percent of inhibition.
The percent of reporter inhibition was calculated in the presence of a positive control inhibitor (100% inhibition) versus a condition with the presence of the vehicle basal activity of the reporter (0% inhibition). The ability of a test compound to inhibit this activity was determined as: Percentage inhibition=[1−((RLU determined in the presence of vehicle−RLU determined for sample with test compound present) divided by (RLU determined in the presence of vehicle−RLU determined for sample with positive control inhibitor))]*100 The activities of example compounds tested are depicted in Table 8. The activity ranges A, B and C refer to IC50 values in the reporter gene assay as follows: “A”: EC50<1 μM; “B”: 1 μM≤EC50≤3.0 μM and “C”: EC50>3.0 μM, NT=not tested.

## CS(=O)(=O)N1CCc2c(nc(Cc3ccccc3)nc2-c2ccn(Cc3cccnc3)n2)C1 [Cpd. No. 37, 2-benzyl-7-(methylsulfonyl)-4-(1-(pyridin-3-ylmethyl)-1H-pyrazol-3-yl)-5,6,7,8-tetrahydropyrido[3,4-d]pyrimidine]
  EC50: > 3000 nM

## CCC(=O)N1CCc2c(nc(-c3ccccc3)nc2-c2ccn(C)n2)C1 [Cpd. No. 40, 1-(4-(1-methyl-1H-pyrazol-3-yl)-2-phenyl-5,8-dihydropyrido[3,4-d]pyrimidin-7(6H)-yl)propan-1-one]
  EC50: 1000 to 3000 nM

## C=CC(=O)N1CCc2c(nc(Cc3ccc(F)cc3)nc2-c2ccn(C)n2)C1 [Cpd. No. 41, 1-(2-(4-fluorobenzyl)-4-(1-methyl-1H-pyrazol-3-yl)-5,8-dihydropyrido[3,4-d]pyrimidin-7(6H)-yl)prop-2-en-1-one]
  EC50: < 1000 nM

## CCC(=O)N1CCc2c(nc(Cc3ccc(F)cc3)nc2-c2ccn(C)n2)C1 [Cpd. No. 42, 1-(2-(4-fluorobenzyl)-4-(1-methyl-1H-pyrazol-3-yl)-5,8-dihydropyrido[3,4-d]pyrimidin-7(6H)-yl)propan-1-one]
  EC50: > 3000 nM

## CCC(=O)N1CCc2c(nc(Cc3cccc(F)c3)nc2-c2ccn(C)n2)C1 [Cpd. No. 44, 1-(2-(3-fluorobenzyl)-4-(1-methyl-1H-pyrazol-3-yl)-5,8-dihydropyrido[3,4-d]pyrimidin-7(6H)-yl)propan-1-one]
  EC50: > 3000 nM

## C=CC(=O)N1CCc2c(nc(Cc3ccc(C(F)(F)F)cc3)nc2-c2ccn(C)n2)C1 [Cpd. No. 45, 1-(4-(1-methyl-1H-pyrazol-3-yl)-2-(4-(trifluoromethyl)benzyl)-5,8-dihydropyrido[3,4-d]pyrimidin-7(6H)-yl)prop-2-en-1-one]
  EC50: < 1000 nM

## CCC(=O)N1CCc2c(nc(Cc3ccc(C(F)(F)F)cc3)nc2-c2ccn(C)n2)C1 [Cpd. No. 47, 1-(4-(1-methyl-1H-pyrazol-3-yl)-2-(4-(trifluoromethyl)benzyl)-5,8-dihydropyrido[3,4-d]pyrimidin-7(6H)-yl)propan-1-one]
  EC50: > 3000 nM

## CCC(=O)N1CCc2c(nc(Cc3cccc(C(F)(F)F)c3)nc2-c2ccn(C)n2)C1 [Cpd. No. 48, 1-(4-(1-methyl-1H-pyrazol-3-yl)-2-(3-(trifluoromethyl)benzyl)-5,8-dihydropyrido[3,4-d]pyrimidin-7(6H)-yl)propan-1-one]
  EC50: 1000 to 3000 nM

## C=CC(=O)N1CCc2c(nc(Cc3cccc(C(F)(F)F)c3)nc2-c2ccn(Cc3cccnc3)n2)C1 [Cpd. No. 50, 1-(4-(1-(pyridin-3-ylmethyl)-1H-pyrazol-3-yl)-2-(3-(trifluoromethyl)benzyl)-5,8-dihydropyrido[3,4-d]pyrimidin-7(6H)-yl)prop-2-en-1-one]
  EC50: < 1000 nM

## C=CC(=O)N1CCc2c(nc(-c3ccccc3)nc2-c2cnn(C)c2)C1 [Cpd. No. 56]
  EC50: < 1000 nM

## C=CC(=O)N1CCc2c(nc(-c3ccccc3)nc2-c2cnn(C(C)C)c2)C1 [Cpd. No. 57, 1-(4-(1-isopropyl-1H-pyrazol-4-yl)-2-phenyl-5,8-dihydropyrido[3,4-d]pyrimidin-7(6H)-yl)prop-2-en-1-one]
  EC50: 1000 to 3000 nM

## C=CC(=O)N1CCc2c(nc(-c3ccccc3)nc2C(=O)NCc2cccnc2)C1 [Cpd. No. 58, 7-acryloyl-2-phenyl-N-(pyridin-3-ylmethyl)-5,6,7,8-tetrahydropyrido[3,4-d]pyrimidine-4-carboxamide]
  EC50: 1000 to 3000 nM

## C=CC(=O)N1CCc2c(nc(-c3ccccc3)nc2-c2ccn(CC)n2)C1 [Cpd. No. 59, 1-(4-(1-ethyl-1H-pyrazol-3-yl)-2-phenyl-5,8-dihydropyrido[3,4-d]pyrimidin-7(6H)-yl)prop-2-en-1-one]
  EC50: < 1000 nM

## C=CC(=O)N1CCc2c(nc(-c3ccccc3)nc2-c2ccn(C(C)C)n2)C1 [Cpd. No. 60, 1-(4-(1-isopropyl-1H-pyrazol-3-yl)-2-phenyl-5,8-dihydropyrido[3,4-d]pyrimidin-7(6H)-yl)prop-2-en-1-one]
  EC50: < 1000 nM

## C=CC(=O)N1CCc2c(nc(-c3ccccc3)nc2-c2cnn(C(F)F)c2)C1 [Cpd. No. 61, 1-(4-(1-(difluoromethyl)-1H-pyrazol-4-yl)-2-phenyl-5,8-dihydropyrido[3,4-d]pyrimidin-7(6H)-yl)prop-2-en-1-one]
  EC50: 1000 to 3000 nM

## C=CC(=O)N1CCc2c(nc(-c3ccccc3)nc2-c2ccnn2C)C1 [Cpd. No. 62, 1-(4-(1-methyl-1H-pyrazol-5-yl)-2-phenyl-5,8-dihydropyrido[3,4-d]pyrimidin-7(6H)-yl)prop-2-en-1-one]
  EC50: 1000 to 3000 nM

## C=CC(=O)N1CCc2c(nc(-c3ccccc3)nc2-c2cccnc2)C1 [Cpd. No. 63, 1-(2-phenyl-4-(pyridin-3-yl)-5,8-dihydropyrido[3,4-d]pyrimidin-7(6H)-yl)prop-2-en-1-one]
  EC50: < 1000 nM

## C=CC(=O)N1CCc2c(nc(-c3ccccc3)nc2-c2ccccc2)C1 [Cpd. No. 64, 1-(2,4-diphenyl-5,8-dihydropyrido[3,4-d]pyrimidin-7(6H)-yl)prop-2-en-1-one]
  EC50: < 1000 nM

## C=CC(=O)N1CCc2c(nc(-c3ccccc3)nc2-c2ccncc2)C1 [Cpd. No. 66, 1-(2-phenyl-4-(pyridin-4-yl)-5,8-dihydropyrido[3,4-d]pyrimidin-7(6H)-yl)prop-2-en-1-one]
  EC50: 1000 to 3000 nM

## C=CC(=O)N1CCc2c(nc(-c3ccccc3)nc2-c2ccccn2)C1 [Cpd. No. 67, 1-(2-phenyl-4-(pyridin-2-yl)-5,8-dihydropyrido[3,4-d]pyrimidin-7(6H)-yl)prop-2-en-1-one]
  EC50: < 1000 nM

## C=CC(=O)N1CCc2cnc(-c3ccccc3)nc2C1 [Cpd. No. 68, 1-(2-phenyl-5,8-dihydropyrido[3,4-d]pyrimidin-7(6H)-yl)prop-2-en-1-one]
  EC50: < 1000 nM

## C=CC(=O)N1CCc2c(nc(-c3ccc(F)cc3)nc2-c2ccn(C(F)F)n2)C1 [Cpd. No. 70, 1-(4-(1-(difluoromethyl)-1H-pyrazol-3-yl)-2-(4-fluorophenyl)-5,8-dihydropyrido[3,4-d]pyrimidin-7(6H)-yl)prop-2-en-1-one]
  EC50: < 1000 nM

## C=CC(=O)N1CCc2c(nc(-c3ccc(C(F)(F)F)cc3)nc2-c2ccn(Cc3cccnc3)n2)C1 [Cpd. No. 72, 1-(4-(1-(pyridin-3-ylmethyl)-1H-pyrazol-3-yl)-2-(4-(trifluoromethyl)phenyl)-5,8-dihydropyrido[3,4-d]pyrimidin-7(6H)-yl)prop-2-en-1-one]
  EC50: < 1000 nM

## Cn1ccc(-c2nc(-c3ccc(C(F)(F)F)cc3)nc3c2CCN(C(=O)CC#N)C3)n1 [Cpd. No. 75, 3-(4-(1-methyl-1H-pyrazol-3-yl)-2-(4-(trifluoromethyl)phenyl)-5,8-dihydropyrido[3,4-d]pyrimidin-7(6H)-yl)-3-oxopropanenitrile]
  EC50: 1000 to 3000 nM

## C=CC(=O)N1CCc2c(-c3ccn(C)n3)nc(-c3ccc(C(F)(F)F)cc3)nc2C1C (centres unmarked) [Cpd. No. 76, 1-(8-methyl-4-(1-methyl-1H-pyrazol-3-yl)-2-(4-(trifluoromethyl)phenyl)-5,8-dihydropyrido[3,4-d]pyrimidin-7(6H)-yl)prop-2-en-1-one]
  EC50: < 1000 nM

## Cn1ccc(-c2nc(-c3ccc(C(F)(F)F)cc3)nc3c2CCN(C#N)C3)n1 [Cpd. No. 78, 4-(1-methyl-1H-pyrazol-3-yl)-2-(4-(trifluoromethyl)phenyl)-5,8-dihydropyrido[3,4-d]pyrimidine-7(6H)-carbonitrile]
  EC50: 1000 to 3000 nM

## Cn1ccc(-c2nc(-c3ccc(C(F)(F)F)cc3)nc3c2CCN(S(C)(=O)=O)C3)n1 [Cpd. No. 79, 4-(1-methyl-1H-pyrazol-3-yl)-7-(methylsulfonyl)-2-(4-(trifluoromethyl)phenyl)-5,6,7,8-tetrahydropyrido[3,4-d]pyrimidine]
  EC50: 1000 to 3000 nM

## C=CS(=O)(=O)N1CCc2c(nc(-c3ccc(C(F)(F)F)cc3)nc2-c2ccn(C)n2)C1 [Cpd. No. 80, 4-(1-methyl-1H-pyrazol-3-yl)-2-(4-(trifluoromethyl)phenyl)-7-(vinylsulfonyl)-5,6,7,8-tetrahydropyrido[3,4-d]pyrimidine]
  EC50: < 1000 nM

## C=CC(=O)N1CCc2c(nc(-c3ccc(C(F)(F)F)cc3)nc2-c2nnn(C)n2)C1 [Cpd. No. 81, 1-(4-(2-methyl-2H-tetrazol-5-yl)-2-(4-(trifluoromethyl)phenyl)-5,8-dihydropyrido[3,4-d]pyrimidin-7(6H)-yl)prop-2-en-1-one]
  EC50: < 1000 nM

## C=CC(=O)N1CCc2c(nc(-c3ccc(C(F)(F)F)cc3)nc2-c2nnnn2C)C1 [Cpd. No. 82, 1-(4-(1-methyl-1H-tetrazol-5-yl)-2-(4-(trifluoromethyl)phenyl)-5,8-dihydropyrido[3,4-d]pyrimidin-7(6H)-yl)prop-2-en-1-one]
  EC50: < 1000 nM

## CN(C)C/C=C/C(=O)N1CCc2c(nc(-c3ccc(C(F)(F)F)cc3)nc2-c2ccn(C)n2)C1 [Cpd. No. 83, (E)-4-(dimethylamino)-1-(4-(1-methyl-1H-pyrazol-3-yl)-2-(4-(trifluoromethyl)phenyl)-5,8-dihydropyrido[3,4-d]pyrimidin-7(6H)-yl)but-2-en-1-one]
  EC50: < 1000 nM

## Cn1ccc(-c2nc(-c3ccc(C(F)(F)F)cc3)nc3c2CCN(C(=O)C2=CCCC2)C3)n1 [Cpd. No. 84, cyclopent-1-en-1-yl(4-(1-methyl-1H-pyrazol-3-yl)-2-(4-(trifluoromethyl)phenyl)-5,8-dihydropyrido[3,4-d]pyrimidin-7(6H)-yl)methanone]
  EC50: < 1000 nM
